In brackets after ≈: the same amount, converted by molar mass. Residues, ends and D or L forms follow the SMILES beside them.
Legend:
[1] = tested on: B. subtilis CMCC 63501; format: cell-based, Bacillus subtilis
Procedure: (§1) The minimal inhibitory concentration (MIC) was determined according to a previously described method ([Chou et al., 2016]). Bacteria were cultured overnight to mid-log phase in MHB at 37°C and then diluted to give final concentrations ranging from 2 × 10^5 to 7 × 10^5 CFU/mL. Then, 50 μL of serial twofold dilutions of the peptides were added to each well in 96-well microtiter plates with a mixed solution containing 0.01% acetic acid and 0.2% bovine serum albumin (BSA, Sigma) was used to dissolve and dilute the peptides. Then, equal amounts of bacterial aliquots were incubated with the above peptide solution for 18–24 h at 37°C. The experiment was performed in triplicate using three replicates for each peptide and each bacterium. The broth was employed as a negative control and the broth with microbial cells was used as a positive control. The lowest concentration of peptide that prevented visible turbidity was defined as the MIC.

[2] = tested on: hRBCs; assay: Hemolytic activity; format: cell-based, human; settings: peptide concentration resulting in 5% hemolysis of hRBCs; PBS, 1 h, 37°C
Procedure: The hemolytic activity of the peptides was detected using a previously described modified method ([Wang et al., 2015]). One milliliter of fresh hRBCs was obtained from a healthy donor (Zhihua Wang, Harbin, China) in a polycarbonate tube containing heparin. The collected hRBCs were centrifuged at 1000 × g for 5 min at 4°C and resuspended in PBS buffer (pH 7.2). The hRBCs were washed three times and then incubated with an equal volume of the respective peptide dissolved in PBS for 1 h at 37°C. Then, the hRBC suspension was placed into a 96-well microtiter plater with 50 μL of tested peptide solution at different concentrations and the mixture was incubated for 1 h at 37°C. […] The minimum hemolytic concentrations (MHCs) were defined as the peptide concentrations resulting in 5% hemolysis.

[3] = tested on: S. epidermidis ATCC 12228; format: cell-based, Staphylococcus epidermidis
Procedure: as §1

[4] = RP-HPLC retention time as measure of relative hydrophobicity; format: physicochemical; settings: analytical RP-HPLC; hydrophobicity increases with retention time
Procedure: These peptides' […] identified via matrix-assisted laser desorption/ionization time-of-flight mass spectrometry (MALDI-TOF MS, Linear Scientific Inc., United States), using α-cyano-4-hydroxycinnamic acid as the matrix. […] Quantitative peptides were dissolved in deionized water and stored at -20°C before the assessments. The rest of the peptides were stored as powders at -20°C to prevent peptide degradation. The structures and molecular weights of the peptides were verified by MALDI-TOF MS. […] The relative hydrophobicity of the symmetric-end peptides was reliably reflected by their different HPLC retention times, and the hydrophobicity increased with increasing HPLC retention times ([Lee et al., 2014]; [Zhu et al., 2014]). The HPLC retention times for […]

Compound: CC[C@H](C)[C@H](N)C(=O)N[C@@H](Cc1c[nH]cn1)C(=O)N[C@@H](CCCCN)C(=O)N[C@@H](Cc1ccccc1)C(=O)N[C@@H](Cc1c[nH]c2ccccc12)C(=O)N[C@@H](CCCNC(=N)N)C(=O)N[C@@H](CS)C(=O)N[C@@H](CCCNC(=N)N)C(=O)N[C@@H](CCCNC(=N)N)C(=O)N[C@@H](CCCNC(=N)N)C(=O)N[C@@H](Cc1ccccc1)C(=O)N[C@@H](CS)C(=O)N[C@@H](CCCNC(=N)N)C(=O)N[C@@H](Cc1c[nH]c2ccccc12)C(=O)N[C@@H](Cc1ccccc1)C(=O)N[C@@H](CCCCN)C(=O)N[C@@H](Cc1c[nH]cn1)C(=O)N[C@H](C(N)=O)[C@@H](C)CC [PQ] (H-IHKFWRCRRRFCRWFKHI-NH2; N-terminus assumed)
- MIC [1]: 16 µM (≈ 41.2 µg/mL)
- MHC (minimum hemolytic concentration) [2]: >128 µM
- MIC [3]: 8 µM (≈ 20.6 µg/mL)
- Retained time (HPLC retention time) [4]: 12.385 min

Source: paper PMC6277555, “Short Symmetric-End Antimicrobial Peptides Centered on β-Turn Amino Acids Unit Improve Selectivity and Stability” (Frontiers in Microbiology, 2018)
